In experiment [1] the target is T1, Aryl Hydrocarbon Receptor (AhR) (Oryctolagus cuniculus, UniProt O02747).
T1 construct: from tissue; host or cells: female New Zealand rabbit liver cytosol
T1 sequence (O02747 1-847): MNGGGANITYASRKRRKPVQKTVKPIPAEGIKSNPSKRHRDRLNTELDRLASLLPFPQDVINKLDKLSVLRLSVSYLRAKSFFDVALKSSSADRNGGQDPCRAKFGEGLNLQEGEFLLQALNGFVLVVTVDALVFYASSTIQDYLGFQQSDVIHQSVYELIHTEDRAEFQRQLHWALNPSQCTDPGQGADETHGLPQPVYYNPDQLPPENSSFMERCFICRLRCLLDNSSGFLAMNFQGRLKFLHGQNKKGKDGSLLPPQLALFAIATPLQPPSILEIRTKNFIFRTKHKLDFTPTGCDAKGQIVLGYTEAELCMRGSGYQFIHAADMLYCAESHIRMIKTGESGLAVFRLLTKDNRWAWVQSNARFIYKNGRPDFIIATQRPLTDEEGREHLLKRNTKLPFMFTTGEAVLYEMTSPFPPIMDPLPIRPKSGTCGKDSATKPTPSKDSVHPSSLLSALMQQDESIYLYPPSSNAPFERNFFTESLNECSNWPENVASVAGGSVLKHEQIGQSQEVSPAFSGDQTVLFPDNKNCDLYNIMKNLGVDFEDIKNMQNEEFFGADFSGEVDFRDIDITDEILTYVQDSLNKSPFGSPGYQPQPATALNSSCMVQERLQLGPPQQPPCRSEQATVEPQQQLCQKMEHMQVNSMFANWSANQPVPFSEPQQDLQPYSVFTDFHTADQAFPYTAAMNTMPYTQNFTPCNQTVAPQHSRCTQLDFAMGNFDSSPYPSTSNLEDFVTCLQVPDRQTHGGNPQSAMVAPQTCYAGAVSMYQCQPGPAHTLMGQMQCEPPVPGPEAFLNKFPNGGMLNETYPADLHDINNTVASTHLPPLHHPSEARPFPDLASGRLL
Nature of the experiment: Ligand binding competition assay (Aryl Hydrocarbon Receptor), [3H]TCDD displacement. Set-up: species or system female New Zealand rabbit (liver cytosol). As to conditions: for AhR RBA (relative binding affinity): resveratrol = 1. The procedure: Ligand binding competition assay (Aryl Hydrocarbon Receptor)
Experiments were conducted exactly as previously described by Savouret et al., (3). Briefly, binding competition was performed using female New Zealand rabbit liver cytosol as the receptor source. The cytosol was prepared at 4° C. in Hepes 20 mM pH 7.6, EDTA 1.5 mM, glycerol 10%, β-mercapto-ethanol 10 mM, with Complete protease cocktail (Roche, Meylan, France) by homogenisation in a Ultra-Turax homogenizer (Bioblock Scientific, Illkirch, France) followed with 20 strokes in a Dounce Homogenizer with the tight pestle. The homogenate was centrifuged 30 min at 20,000 g. The supernatant was centrifuged at 105,000 g for 65 min. The cytosol was aliquoted, snap-frozen in liquid nitrogen and kept at −80° C. Cytosol aliquotes (4.5 ml) were thawed on ice, diluted ten-fold in Hepes 20 mM pH 7.6, 5 mM CaCl2, containing Complete protease cocktail and 10 mM mercapto-ethanol, and recentrifuged 30 min. at 105,000 g. The cleared cytosol dilution was adjusted to 0.85 mg proteins/ml. 930 μl of diluted cytosol were preincubated with the desired amounts of unlabeled competitors in ethanol solutions for 1 hour at 4° C. Subsequently, 2,3,7,8-tetrachloro (1,6-3 H) dibenzo-p-dioxin (28 Ci/mmole) was added at 0.2 nM and incubation continued for 3 hours at 4° C. Non-displaceable binding was assessed by incubating the aliquotes with 70 μl of a 2% activated charcoal suspension in Hepes 20 mM pH 7.6 for 90 minutes at 4° C., followed by centrifugation at 15,000 g for 10 minutes. 500 μl of the supernatants were counted in 5 ml of Ultima Gold cocktail (Packard, Meridien, Conn.) in a Beckman liquid scintillation Counter (45% counting efficiency). Binding competition assays were repeated at least twice for each competitor and each point was performed in triplicate.

Experiment [2] concerns the target T2, ER (Homo sapiens, UniProt P03372).
T2 construct: stably transfecting MCF-7 cells with the ERE-globin-tk-luc-SV-Neo plasmid; endogenous in cells; host or cells: MCF-7-Luc (MCF-7 stably transfected with ERE-globin-tk-luc-SV-Neo)
T2 sequence (P03372 1-595): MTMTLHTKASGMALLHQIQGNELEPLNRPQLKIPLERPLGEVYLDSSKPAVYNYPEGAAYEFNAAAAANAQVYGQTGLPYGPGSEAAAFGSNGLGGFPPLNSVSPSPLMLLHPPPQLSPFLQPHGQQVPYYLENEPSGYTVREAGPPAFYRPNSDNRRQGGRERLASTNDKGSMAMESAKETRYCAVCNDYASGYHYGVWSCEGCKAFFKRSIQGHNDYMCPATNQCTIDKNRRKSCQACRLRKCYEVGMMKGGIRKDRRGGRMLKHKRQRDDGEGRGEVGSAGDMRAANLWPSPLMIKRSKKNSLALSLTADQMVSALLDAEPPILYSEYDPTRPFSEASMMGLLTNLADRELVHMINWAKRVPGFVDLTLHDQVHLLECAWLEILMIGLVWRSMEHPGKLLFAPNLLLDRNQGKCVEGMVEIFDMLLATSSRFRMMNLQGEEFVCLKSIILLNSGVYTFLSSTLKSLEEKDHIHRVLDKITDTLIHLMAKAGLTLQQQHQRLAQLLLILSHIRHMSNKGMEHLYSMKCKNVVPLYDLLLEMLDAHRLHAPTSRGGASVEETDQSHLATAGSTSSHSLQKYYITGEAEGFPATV
Nature of the experiment: ER-mediated transactivation, ERE-driven Luciferase reporter stable cell line (MCF-7-Luc). For ER T.A. (transcriptional activity): key: Ago: agonist; N.M.: not measurable. It is filed as cell-based. As to conditions: for ER T.A. (transcriptional activity): trans-stilbenes; for ER TA (transcriptional activity): cis-stilbenes. The procedure: The human adenocarcinoma breast cell line MCF-7 was obtained from the American Tissue Culture Collection (Rockville, USA). The cells were established by stably transfecting MCF-7 cells with the ERE-globin-tk-luc-SV-Neo plasmid and thus expressed luciferase in an estrogen dependent manner MCF-7-Luc. […] Cells were incubated at 37° C. in a humidified 5% CO2 incubator. For experiments, cells were grown for 5 days in phenol red-free medium, containing 5% dextran-coated charcoal treated FCS (DCC-FCS). Medium was changed after 2 days. At day 5, cells were treated or not with compounds. Compounds were dissolved in ethanol.
For each condition, 15.103 cells were seeded per well in 12-well plates and treated, as described above, during 16 hours in a final volume of 0.5 mL. At the end of the treatment, cells were washed with PBS and lysed in 150 μl of lysis buffer (Promega, Charbonnieres, France). Luciferase activity was measured using the luciferase assay reagent (Promega), according to the manufacturer's instructions. Protein concentrations were measured using Bradford technique, to normalize the luciferase activity data. For each condition, average luciferase activity was calculated from the data of 3 independent wells.
On the technique in general: Reporter assays use an easily measured gene product as a stand-in for the process of interest.

The values that follow come from patent US20040147788A1, “Stilbene derivatives and their use as aryl hydrocarbon receptor antagonistic ligands” (priority 2002, published 2004).

Turning to `COc1cc(/C=C/c2ccc(F)cc2)cc(OC)c1` [Compound 4f, (E)-1-(4-fluorophenyl)-2-(3,5-dimethoxyphenyl)-ethene], the “AhR RBA (relative binding affinity)” value in experiment [1] (trans-stilbenes) is 32.1. Moreover, the “ER T.A. (transcriptional activity)” value in experiment [2] is listed as “N.M”.

`FC(F)(F)c1ccc(/C=C\c2cc(Cl)cc(Cl)c2)cc1` [Compound 5i, (Z)-1-(4-trifluoromethylphenyl)-2-(3,5-dichlorophenyl)-ethene]: the “AhR RBA (relative binding affinity)” value in experiment [1] (cis-stilbenes) is 10.9. For the same compound, in experiment [2], the “ER TA (transcriptional activity)” value is recorded as “N.M”.

In the case of `CCCCOc1ccc(/C=C\c2cc(OC)cc(OC)c2)cc1` [Compound 5h, (Z)-1-(4-butoxyphenyl)-2-(3,5-dimethoxyphenyl)-ethene], the “AhR RBA (relative binding affinity)” value in experiment [1] (cis-stilbenes) is given as 3.7. The “ER TA (transcriptional activity)” value in experiment [2] is listed as “N.M”.

Take `CCOc1ccc(/C=C/c2cc(OC)cc(OC)c2)cc1` [Compound 4g, (E)-1-(4-ethoxyphenyl)-2-(3,5-dimethoxyphenyl)-ethene]: the “AhR RBA (relative binding affinity)” value in experiment [1] (trans-stilbenes) is given as 39.8. Further, the “ER T.A. (transcriptional activity)” value in experiment [2] is “N.M”.

Take `Clc1ccc(/C=C/c2cc(Cl)cc(Cl)c2)cc1` [Compound 4b, (E)-1-(4-chlorophenyl)-2-(3,5-dichlorophenyl)-ethene]: in experiment [1], the “relative binding affinity (RBA) for AhR” value came out at 130.0. For the same compound, the “AhR RBA (relative binding affinity)” value in experiment [1] (trans-stilbenes) amounted to 130.0. Moreover, the “ER T.A. (transcriptional activity)” value in experiment [2] is listed as “N.M”.

For the compound `COc1ccc(/C=C\c2cc(F)cc(F)c2)cc1` [Compound 5c, (Z)-1-(4-methoxyphenyl)-2-(3,5-difluorophenyl)-ethene], in experiment [1] (cis-stilbenes), the “AhR RBA (relative binding affinity)” value was 7.2. In addition, the “ER TA (transcriptional activity)” value in experiment [2] is given as “N.M”.

With `COc1ccc(/C=C/c2cc(Cl)cc(Cl)c2)cc1` [Compound 4j, (E)-1-(4-methoxyphenyl)-2-(3,5-dichlorophenyl)-ethene], the “relative binding affinity (RBA) for AhR” value in experiment [1] turned out to be 112.0. The “AhR RBA (relative binding affinity)” value in experiment [1] (trans-stilbenes) was found to be 112.0. Further, the “ER T.A. (transcriptional activity)” value in experiment [2] is reported as “N.M”.

Take `Fc1ccc(/C=C\c2cc(F)cc(F)c2)cc1` [Compound 5d, (Z)-1-(4-fluorophenyl)-2-(3,5-difluorophenyl)-ethene]: the “AhR RBA (relative binding affinity)” value in experiment [1] (cis-stilbenes) is 2.6. In addition, the “ER TA (transcriptional activity)” value in experiment [2] is “N.M”.

As for `COc1ccc(/C=C\c2cc(OC)cc(OC)c2)cc1` [Compound 5a, (Z)-1-(4-methoxyphenyl)-2-(3,5-dimethoxyphenyl)-ethene], the “AhR RBA (relative binding affinity)” value in experiment [1] (cis-stilbenes) is 2.1. In experiment [2], the “ER TA (transcriptional activity)” value is reported as “Ago”.

As for `COc1ccc(/C=C/c2cc(OC)cc(OC)c2)cc1` [Compound 4a, (E)-1-(4-methoxyphenyl)-2-(3,5-dimethoxyphenyl)-ethene], the “AhR RBA (relative binding affinity)” value in experiment [1] (trans-stilbenes) was found to be 21.0. In addition, the “ER T.A. (transcriptional activity)” value in experiment [2] is listed as “Ago”.

Take `COc1ccc(/C=C\c2cc(Cl)cc(Cl)c2)cc1` [Compound 5j, (Z)-1-(4-methoxyphenyl)-2-(3,5-dichlorophenyl)-ethene]: the “AhR RBA (relative binding affinity)” value in experiment [1] (cis-stilbenes) turned out to be 13.0. Further, the “ER TA (transcriptional activity)” value in experiment [2] is given as “N.M”.

On to `FC(F)(F)c1ccc(/C=C/c2cc(Cl)cc(Cl)c2)cc1` [Compound 4i, (E)-1-(4-trifluoromethylphenyl)-2-(3,5-dichlorophenyl)-ethene], for which, in experiment [1] (trans-stilbenes), the “AhR RBA (relative binding affinity)” value is reported as 791.0. Further, the “ER T.A. (transcriptional activity)” value in experiment [2] is on record as “N.M”.

Turning to `COc1ccc(/C=C/c2cc(F)cc(F)c2)cc1` [Compound 4c, (E)-1-(4-methoxyphenyl)-2-(3,5-difluorophenyl)-ethene], in experiment [1] (trans-stilbenes), the “AhR RBA (relative binding affinity)” value came out at 17.5. Also, the “ER T.A. (transcriptional activity)” value in experiment [2] was “N.M”.

Regarding `Fc1ccc(/C=C/c2cc(F)cc(F)c2)cc1` [Compound 4d, (E)-1-(4-fluorophenyl)-2-(3,5-difluorophenyl)-ethene], the “AhR RBA (relative binding affinity)” value in experiment [1] (trans-stilbenes) is given as 39.1. Moreover, the “ER T.A. (transcriptional activity)” value in experiment [2] is recorded as “N.M”.

In the case of `CCCCOc1ccc(/C=C/c2cc(OC)cc(OC)c2)cc1` [Compound 4h, (E)-1-(4-butoxyphenyl)-2-(3,5-dimethoxyphenyl)-ethene], in experiment [1] (trans-stilbenes), the “AhR RBA (relative binding affinity)” value is 8.1. For the same compound, in experiment [2], the “ER T.A. (transcriptional activity)” value was “N.M”.

For `CCOc1ccc(/C=C\c2cc(OC)cc(OC)c2)cc1` [Compound 5g, (Z)-1-(4-ethoxyphenyl)-2-(3,5-dimethoxyphenyl)-ethene], the “AhR RBA (relative binding affinity)” value in experiment [1] (cis-stilbenes) came to 2.5. The “ER TA (transcriptional activity)” value in experiment [2] is recorded as “N.M”.

`FC(F)(F)c1ccc(/C=C\c2cc(C(F)(F)F)cc(C(F)(F)F)c2)cc1` [Compound 5e, (Z)-1-(4-trifluoromethylphenyl)-2-(3,5-ditrifluoromethylphenyl)-ethene]: the “AhR RBA (relative binding affinity)” value in experiment [1] (cis-stilbenes) was found to be 2.7. Further, the “ER TA (transcriptional activity)” value in experiment [2] is “N.M”.

Take `COc1cc(/C=C\c2ccc(F)cc2)cc(OC)c1` [Compound 5f, (Z)-1-(4-fluorophenyl)-2-(3,5-dimethoxyphenyl)-ethene]: in experiment [1] (cis-stilbenes), the “AhR RBA (relative binding affinity)” value is on record as 1.7. Further, the “ER TA (transcriptional activity)” value in experiment [2] is given as “N.M”.

On to `FC(F)(F)c1ccc(/C=C/c2cc(C(F)(F)F)cc(C(F)(F)F)c2)cc1` [Compound 4e, (E)-1-(4-trifluoromethylphenyl)-2-(3,5-ditrifluoromethylphenyl)-ethene], for which the “relative binding affinity (RBA) for AhR” value in experiment [1] is 52.1. Moreover, in experiment [1] (trans-stilbenes), the “AhR RBA (relative binding affinity)” value amounted to 52.1. For the same compound, in experiment [2], the “ER T.A. (transcriptional activity)” value is “N.M”.

Regarding `Clc1ccc(/C=C\c2cc(Cl)cc(Cl)c2)cc1` [Compound 5b, (Z)-1-(4-chlorophenyl)-2-(3,5-dichlorophenyl)-ethene], the “AhR RBA (relative binding affinity)” value in experiment [1] (cis-stilbenes) is 12.4. In experiment [2], the “ER TA (transcriptional activity)” value is reported as “N.M”.
